{"source": "patent US4619943A", "about": "“Neolignans of Saururus cernuus L and analogues thereof” (priority 1984, dated 1986)", "key": {"[1]": {"system": "cabbage looper (Trichoplusia ni [Hubner])", "assay": "Insecticidal activity against cabbage looper", "type": "in vivo", "conditions": "Trichoplusia ni, 336 h, second instar larvae, 14 days", "procedure": "(§1) The present compounds were tested for insecticidal activity against cabbage looper (Trichoplusia ni [Hubner]), and southern armyworm (Spodoptera eridania) at application rates of 1000 and 500 ppm. The tests were conducted in petri dishes containing a solid food source in which the test compounds had been incorporated. The petri dishes containing the treated food source were infested with second instar larvae of southern armyworms or cabbage loopers. Ten larvae per replicate and two replicates per test rate were used. Mortality data were taken 14 days after infestation."}, "[2]": {"assay": "Acute toxicity (LD50) in mice, procedure of Turner", "type": "in vivo, male Swiss mice", "conditions": "mouse, in vivo, ip; mice, intraperitoneal, 24 hours"}, "mice": {"system": "mice", "assay": "Acute toxicity (LD50) in mice, procedure of Turner", "type": "in vivo, male Swiss mice"}, "[3]": {"assay": "Suppression of aggressiveness in isolated mice", "type": "in vivo, male Swiss mice", "conditions": "eighty minutes after injection; for % Inhibition of Aggressiveness: 2 mg/Kg", "procedure": "They were not disturbed except for replacement of food. Under these conditions, about two thirds of the mice became aggressive as manifested by vicious attacks within one minute on a nonisolated male mouse placed in their cage. Such combative mice were divided into two groups. With one group held as the control, the mice in other group were injected with SC-8 at 2 or 1 mg/Kg. The mice were tested for aggressiveness before the injection and eighty minutes after the injection. If no fighting took place with a nonisolated mouse introduced into the cage, this was regarded as inhibition of aggressiveness (P. A. J. Janssen, A. H. Jageneau and C. J. E. Niemegeers; J. Pharmacol, Exp. Ther. 129, 471 (1960)). The experiment was repeated with SC-8 at 2 mg/Kg."}, "Pimephales promelas": {"system": "Pimephales promelas", "assay": "Acute toxicity to fish", "type": "in vivo", "conditions": "for % Mortality, Avg / % Mortality, single replicates (1 to 6): 2 hours; for % Mortality, single replicates (1 to 6): 120 min", "procedure": "Many compounds having insecticidal activity also show toxicity to fish. For example, rotenoids, pyrethrins, and DDT have significant toxicity to fish. For this reason, fish have been used frequently to indicate potential insecticidal activity. The present compounds were tested for acute toxicity to fish by the method described in \"Methods For Acute Toxicity Tests With Fish, Macro-Invertebrates and Amphibians\", EPA 660/3-75-009, Committee on Methods for Toxicity Tests With Aquatic Organisms, Environmental Protection Agency, Corvallis, OR, 1975.\nThe fish, commonly known as Missouri minnows or fat heads (Pimephales promelas, family, cyprinidae) were purchased from a local hatchery and equilibrated to the new surroundings for 24 hours. They were kept in deionized water, previously adjusted to pH 6.5 with phosphate buffer at 23° C. Sufficient oxygen was provided, and the fish were deprived of food during the test period.\nGroups of six fish were placed in containers with different concentrations of the test compound. The percent mortality was recorded every 30 minutes. The LC 50 values (mg/L) and 95% confidence limits were determined from the percent mortality data after 2 hours of exposure from 6 separate replicates using the method of Lichfield and Wiloxon [(J. Pharmacology and Exp. Therepeutics, 96, 99-113 (1949))]."}, "[4]": {"system": "southern armyworm (Spodoptera eridania)", "assay": "Insecticidal activity against southern armyworm", "type": "in vivo", "conditions": "both application rates, 1000 and 500 ppm, 14 days", "procedure": "as §1"}}, "note": "“And” between values parts separate entries of the source, which are not always exact repeats. Equal entries are not always repeated.", "data": [{"smiles": "COc1ccc(C(O)C(C)Oc2ccc([C@@H]3O[C@@H](c4ccc(OC(C)C(O)c5ccc(OC)c(OC)c5)c(OC)c4)[C@@H](C)[C@@H]3C)cc2OC)cc1OC", "note": "(stereo partly drawn) [SC-8, 2α,5β-bis[3-methoxy-4-{threo-3-hydroxy-3-(3,4-dimethoxyphenyl)}isopropoxyphenyl]-3α,4β-dimethyltetrahydrofuran]", "values": [{"measurement": "mortality at 500 ppm", "setting": "[1]; 500 ppm in food", "result": 90, "unit": "%"}, {"measurement": "mortality at 1000 ppm", "setting": "[1]; 1000 ppm in food", "result": 100, "unit": "%"}, {"measurement": "LD50 at 24 h", "setting": "[2]", "result": "5.2 ± 0.2", "unit": "mg/kg"}, {"measurement": "LD10", "setting": "mice; mice", "result": 4, "unit": "mg/kg"}, {"measurement": "toxicity by the oral route", "setting": "mice; mice, oral, dose range of 10-20 mg/Kg", "result": "toxic"}, {"measurement": "absorbability following oral administration", "setting": "mice; oral, inferred from oral toxicity at 10-20 mg/Kg", "result": "ready absorbability"}, {"measurement": "Inhibition of Aggressiveness (in words)", "setting": "[3]; 1 mg/Kg, 3 mice", "result": "Slight"}, {"measurement": "% Inhibition of Aggressiveness", "setting": "[3]; 3 mice", "result": "> 75", "unit": "%"}, {"measurement": "% Inhibition of Aggressiveness", "setting": "[3]; 5 mice, repeat experiment", "result": "> 75", "unit": "%"}, {"measurement": "% Mortality, Avg", "setting": "Pimephales promelas; 0.13 mg/L", "result": 9, "unit": "%"}, {"measurement": "% Mortality, single replicates (1 to 6)", "setting": "Pimephales promelas; 0.13 mg/L", "result": "0% (3×) and 17% (3×)"}, {"measurement": "% Mortality, Avg", "setting": "Pimephales promelas; 0.25 mg/L", "result": 28, "unit": "%"}, {"measurement": "% Mortality, single replicates (1 to 6)", "setting": "Pimephales promelas; 0.25 mg/L", "result": "33% (4×) and 17% (2×)"}, {"measurement": "% Mortality, Avg", "setting": "Pimephales promelas; 0.38 mg/L", "result": 50, "unit": "%"}, {"measurement": "% Mortality, single replicates (1 to 6)", "setting": "Pimephales promelas; 0.38 mg/L", "result": "67% and 50% (4×) and 33%"}, {"measurement": "% Mortality, Avg", "setting": "Pimephales promelas; 0.5 mg/L", "result": 64, "unit": "%"}, {"measurement": "% Mortality, single replicates (1 to 6)", "setting": "Pimephales promelas; 0.5 mg/L", "result": "67% (5×) and 50%"}, {"measurement": "% Mortality, Avg", "setting": "Pimephales promelas; 0.75 mg/L", "result": 75, "unit": "%"}, {"measurement": "% Mortality, single replicates (1 to 6)", "setting": "Pimephales promelas; 0.75 mg/L", "result": "83% (3×) and 67% (3×)"}, {"measurement": "% Mortality, Avg", "setting": "Pimephales promelas; 1.0 mg/L", "result": 97, "unit": "%"}, {"measurement": "% Mortality, single replicates (1 to 6)", "setting": "Pimephales promelas; 1.0 mg/L", "result": "100% (5×) and 83%"}, {"measurement": "LC50", "setting": "Pimephales promelas; 2 hours of exposure, pH 6.5, 23° C", "result": 0.48, "unit": "µg/mL"}, {"measurement": "insecticidal activity, southern armyworm", "setting": "[4]", "result": "inactive"}]}]}
